US20240067693A1, “POLYPEPTIDES AND USES THEREOF” (MEDIMMUNE LIMITED, priority 2020, published 2024)
Numbered stars: 1 amine (or outer) side, 2 acyl side, 3 side chain; on linkers, the order of the positions; unused ones are H or OH. Bridge positions count the residues as written; N and C are the ends. Square brackets hold non-standard residues; d marks the D form. Side chains are listed from the residue outwards. Peptide text beside a SMILES is read from it. * marks the point of attachment. C20 diacid = O=C(O)CCCCCCCCCCCCCCCCCCC(=O)*; C18 diacid = O=C(O)CCCCCCCCCCCCCCCCC(=O)*; γGlu = O=C(O)[C@H](CCC(=O)[*:2])N[*:1]; AEEA = NCCOCCOCC(=O)O; Aib = CC(C)(N)C(=O)O

Columns and labels:
[1] = biological target: T1, human amylin receptor (calcitonin receptor co-expressed with receptor activity modifying protein, RAMP3) (hAMYR3) (Homo sapiens, UniProt O60896+P30988); experiment: cAMP production in 1321N1 cells with stable recombinant expression of human amylin receptor (hAMYR3); format: cell-based; conditions: for Ratio (selectivity hAMYR vs hCTR, ratio of EC50 values at the two receptors): EC50 hCTR / EC50 hAMYR3; for EC50: cAMP, 1321N1 cells, assay buffer with 0.1% BSA, read-out: EC50 (pM) hAMYR3
T1 construct: expressed in transfected cells
T1 sequence (P30988 25-474): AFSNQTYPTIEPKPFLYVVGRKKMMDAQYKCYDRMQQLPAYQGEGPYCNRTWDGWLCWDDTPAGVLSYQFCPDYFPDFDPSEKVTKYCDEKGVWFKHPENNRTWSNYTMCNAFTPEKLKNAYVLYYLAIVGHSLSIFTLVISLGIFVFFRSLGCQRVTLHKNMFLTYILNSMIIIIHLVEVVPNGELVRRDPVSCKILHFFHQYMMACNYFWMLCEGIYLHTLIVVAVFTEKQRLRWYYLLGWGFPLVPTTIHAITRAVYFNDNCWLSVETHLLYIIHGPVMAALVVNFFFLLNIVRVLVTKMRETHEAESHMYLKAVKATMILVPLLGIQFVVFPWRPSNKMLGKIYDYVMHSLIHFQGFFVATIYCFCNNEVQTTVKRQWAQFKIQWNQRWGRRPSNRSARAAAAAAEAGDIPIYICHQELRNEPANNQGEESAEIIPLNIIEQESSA
T1 sequence (O60896 24-148 partner): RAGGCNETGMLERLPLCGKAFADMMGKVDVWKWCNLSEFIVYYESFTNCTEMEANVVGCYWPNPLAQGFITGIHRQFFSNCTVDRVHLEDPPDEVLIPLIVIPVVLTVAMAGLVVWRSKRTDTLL
How it was run: (§1)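 Thawed cells in HBSS/0.1% BSA/25 mM HEPES pH 7.4 with 0.5 mM IBMX were incubated with peptides 30 min at room temperature; cAMP read by HTRF. EC50 from 4-parameter fit of % activation relative to maximal amylin or calcitonin effect.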

[2] = biological target: T2, human calcitonin receptor (hCTR) (Homo sapiens, UniProt P30988); experiment: cAMP production in 1321N1 cells with stable recombinant expression of human calcitonin receptor (hCTR); format: cell-based; conditions: cAMP, 1321N1 cells, assay buffer with 0.1% BSA; read-out: EC50 (pM) hCTR
T2 construct: expressed in transfected cells
T2 sequence (P30988 25-474): T1 sequence (P30988 25-474)
How it was run: as §1

[3] = Thioflavin T fibrillation assay; format: physicochemical; conditions: for fibril-forming tendency: ThT assay, 1 mg/mL, pH 4.0, 37 °C, compared to pramlintide; for Time taken to detect increase in fluorescence intensity: ThT fibrillation assay, peptide 1 mg/mL in 25 mM sodium acetate buffer pH 4.0, 6 days at 37 °C with shaking, >144 h = no increase
How it was run: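 Peptides at 1 mg/mL in 25 mM sodium acetate pH 4.0 with ThT (from 0.25 mM stock), incubated 6 days at 37 °C with intermittent orbital shaking at 500–750 rpm. Fluorescence (ex 444/em 480 nm) read every 30 min; value is average time to a rise in baseline-corrected signal.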

in vivo = conditions: male, Sprague-Dawley, rat, 20 nmol/kg

Row | Ratio (selectivity hAMYR vs hCTR, ratio of EC50 values at the two receptors) [1] | EC50 [1] [pM] | EC50 [2] [pM] | fibril-forming tendency [3] | Time taken to detect increase in fluorescence intensity [3] [h] | half-life (in vivo; iv) [h] | half-life (in vivo; sc) [h] | SMILES
1 | 30 | 248 | 7530 | increases the fibril-forming tendency | <5 | 12 | 12 | CC[C@H](C)[C@H](NC(=O)[C@@H]1CCCN1C(=O)CNC(=O)[C@H](Cc1ccccc1)NC(=O)[C@H](CC(N)=O)NC(=O)[C@H](CC(N)=O)NC(=O)[C@H](CO)NC(=O)[C@H](CO)NC(=O)[C@H](Cc1c[nH]cn1)NC(=O)[C@@H](NC(=O)[C@H](CC(C)C)NC(=O)[C@H](Cc1ccccc1)NC(=O)[C@H](CC(N)=O)NC(=O)[C@H](C)NC(=O)[C@H](CC(C)C)NC(=O)[C@H](CCCNC(=N)N)NC(=O)[C@H](CCC(N)=O)NC(=O)[C@@H](NC(=O)[C@H](C)NC(=O)[C@@H]1CSSC[C@H](NC(=O)[C@H](CCCCN)NC(=O)CNC(=O)CNC(=O)CNC(=O)CC[C@H](NC(=O)CC[C@H](NC(=O)CCCCCCCCCCCCCCCCC(=O)O)C(=O)O)C(=O)O)C(=O)N[C@@H](CC(N)=O)C(=O)N[C@@H]([C@@H](C)O)C(=O)N[C@@H](C)C(=O)N[C@@H]([C@@H](C)O)C(=O)N1)[C@@H](C)O)C(C)C)C(=O)N[C@@H](CC(C)C)C(=O)N1CCC[C@H]1C(=O)N1CCC[C@H]1C(=O)N[C@H](C(=O)N[C@@H](CC(N)=O)C(=O)N[C@H](C(=O)NCC(=O)N[C@@H](CO)C(=O)N[C@@H](CC(N)=O)C(=O)N[C@H](C(=O)N[C@@H](Cc1ccc(O)cc1)C(N)=O)[C@@H](C)O)C(C)C)[C@@H](C)O [Peptide 4] ({C18 diacid-γGlu-γGlu}-GGGKCNTATCATQRLANFLVHSSNNFGPILPPTNVGSNTY-NH2; disulfide 5-10)
2 | 21 | 174 | 3600 | increases the fibril-forming tendency | 7 | 10.5 | 9.4 | CC[C@H](C)[C@H](NC(=O)[C@@H]1CCCN1C(=O)CNC(=O)[C@H](Cc1ccccc1)NC(=O)[C@H](CC(N)=O)NC(=O)[C@H](CC(N)=O)NC(=O)[C@H](CO)NC(=O)[C@H](CO)NC(=O)[C@H](Cc1c[nH]cn1)NC(=O)[C@@H](NC(=O)[C@H](CC(C)C)NC(=O)[C@H](Cc1ccccc1)NC(=O)[C@H](CC(N)=O)NC(=O)[C@H](C)NC(=O)[C@H](CC(C)C)NC(=O)[C@H](CCCNC(=N)N)NC(=O)[C@H](CCC(N)=O)NC(=O)[C@@H](NC(=O)[C@H](C)NC(=O)[C@@H]1CSSC[C@H](NC(=O)[C@@H](N)CCCCNC(=O)CC[C@H](NC(=O)CC[C@H](NC(=O)CCCCCCCCCCCCCCCCC(=O)O)C(=O)O)C(=O)O)C(=O)N[C@@H](CC(N)=O)C(=O)N[C@@H]([C@@H](C)O)C(=O)N[C@@H](C)C(=O)N[C@@H]([C@@H](C)O)C(=O)N1)[C@@H](C)O)C(C)C)C(=O)N[C@@H](CC(C)C)C(=O)N1CCC[C@H]1C(=O)N1CCC[C@H]1C(=O)N[C@H](C(=O)N[C@@H](CC(N)=O)C(=O)N[C@H](C(=O)NCC(=O)N[C@@H](CO)C(=O)N[C@@H](CC(N)=O)C(=O)N[C@H](C(=O)N[C@@H](Cc1ccc(O)cc1)C(N)=O)[C@@H](C)O)C(C)C)[C@@H](C)O [Peptide 5] (H-K([γGlu-γGlu-C18 diacid])CNTATCATQRLANFLVHSSNNFGPILPPTNVGSNTY-NH2; disulfide 2-7; N-terminus assumed)
3 | 5 | 68 | 310 | increases the fibril-forming tendency | 15 | 9.5 | 17.6 | CC[C@H](C)[C@H](NC(=O)[C@@H]1CCCN1C(=O)CNC(=O)[C@H](Cc1ccccc1)NC(=O)[C@H](CC(N)=O)NC(=O)[C@H](CC(N)=O)NC(=O)[C@H](CO)NC(=O)[C@H](CO)NC(=O)[C@H](Cc1c[nH]cn1)NC(=O)[C@@H](NC(=O)[C@H](CC(C)C)NC(=O)[C@H](Cc1ccccc1)NC(=O)[C@H](CC(N)=O)NC(=O)[C@H](C)NC(=O)[C@H](CC(C)C)NC(=O)[C@H](CCCNC(=N)N)NC(=O)[C@H](CCC(N)=O)NC(=O)[C@@H](NC(=O)[C@H](C)NC(=O)[C@@H]1CSSC[C@H](NC(=O)[C@@H](N)CCCCNC(=O)COCCOCCNC(=O)COCCOCCNC(=O)CC[C@H](NC(=O)CCCCCCCCCCCCCCCCC(=O)O)C(=O)O)C(=O)N[C@@H](CC(N)=O)C(=O)N[C@@H]([C@@H](C)O)C(=O)N[C@@H](C)C(=O)N[C@@H]([C@@H](C)O)C(=O)N1)[C@@H](C)O)C(C)C)C(=O)N[C@@H](CC(C)C)C(=O)N1CCC[C@H]1C(=O)N1CCC[C@H]1C(=O)N[C@H](C(=O)N[C@@H](CC(N)=O)C(=O)N[C@H](C(=O)NCC(=O)N[C@@H](CO)C(=O)N[C@@H](CC(N)=O)C(=O)N[C@H](C(=O)N[C@@H](Cc1ccc(O)cc1)C(N)=O)[C@@H](C)O)C(C)C)[C@@H](C)O [Peptide 6] (H-K([AEEA-AEEA-γGlu-C18 diacid])CNTATCATQRLANFLVHSSNNFGPILPPTNVGSNTY-NH2; disulfide 2-7; N-terminus assumed)
4 | 10 | 164 | 1570 | – | – | 6.3 | 8.5 | CC[C@H](C)[C@H](NC(=O)[C@@H]1CCCN1C(=O)CNC(=O)[C@H](Cc1ccccc1)NC(=O)[C@H](CC(N)=O)NC(=O)C(C)(C)NC(=O)[C@H](CO)NC(=O)[C@H](CO)NC(=O)[C@H](Cc1c[nH]cn1)NC(=O)[C@@H](NC(=O)[C@H](CC(C)C)NC(=O)[C@H](Cc1ccccc1)NC(=O)[C@H](CC(N)=O)NC(=O)[C@H](C)NC(=O)[C@H](CC(C)C)NC(=O)[C@H](CCCNC(=N)N)NC(=O)[C@H](CCC(N)=O)NC(=O)[C@@H](NC(=O)[C@H](C)NC(=O)[C@@H]1CSSC[C@H](NC(=O)[C@H](CCCCN)NC(=O)[C@@H](N)CCCCNC(=O)CC[C@H](NC(=O)CCCCCCCCCCCCCCCCC(=O)O)C(=O)O)C(=O)N[C@@H](CC(N)=O)C(=O)N[C@@H]([C@@H](C)O)C(=O)N[C@@H](C)C(=O)N[C@@H]([C@@H](C)O)C(=O)N1)[C@@H](C)O)C(C)C)C(=O)N[C@@H](CC(C)C)C(=O)N1CCC[C@H]1C(=O)N1CCC[C@H]1C(=O)N[C@H](C(=O)N[C@@H](CCCNC(=N)N)C(=O)N[C@H](C(=O)NCC(=O)N[C@@H](CO)C(=O)N[C@@H](CC(N)=O)C(=O)N[C@H](C(=O)N[C@@H](Cc1ccc(O)cc1)C(N)=O)[C@@H](C)O)C(C)C)[C@@H](C)O [Peptide 69, K(γE-C18diacid)K[CNTATC]ATQRLANFLVHSS(Aib)NFGPILPPTRVGSNTY-amide] (H-K([γGlu-C18 diacid])KCNTATCATQRLANFLVHSS[Aib]NFGPILPPTRVGSNTY-NH2; disulfide 3-8)
5 | 4 | 770 | 3190 | – | – | 9.8 | 12.9 | CC[C@H](C)[C@H](NC(=O)[C@H](C)NC(=O)[C@@H]1CCCN1C(=O)[C@H](Cc1ccccc1)NC(=O)[C@H](CC(N)=O)NC(=O)C(C)(C)NC(=O)[C@H](CO)NC(=O)[C@H](CO)NC(=O)[C@H](Cc1c[nH]cn1)NC(=O)[C@@H](NC(=O)[C@H](CC(C)C)NC(=O)[C@H](Cc1ccccc1)NC(=O)[C@H](CC(N)=O)NC(=O)[C@H](C)NC(=O)[C@H](CC(C)C)NC(=O)[C@H](CCCNC(=N)N)NC(=O)[C@H](CCC(N)=O)NC(=O)[C@@H](NC(=O)[C@H](C)NC(=O)[C@@H]1CSSC[C@H](NC(=O)[C@@H](N)CCCCNC(=O)CC[C@H](NC(=O)CC[C@H](NC(=O)CCCCCCCCCCCCCCCCCCC(=O)O)C(=O)O)C(=O)O)C(=O)N[C@@H](CC(N)=O)C(=O)N[C@@H]([C@@H](C)O)C(=O)N[C@@H](C)C(=O)N[C@@H]([C@@H](C)O)C(=O)N1)[C@@H](C)O)C(C)C)C(=O)N[C@@H](CC(C)C)C(=O)N[C@@H](CO)C(=O)N1CCC[C@H]1C(=O)N[C@H](C(=O)N[C@@H](CC(N)=O)C(=O)N[C@H](C(=O)NCC(=O)N[C@@H](CO)C(=O)N[C@@H](CC(N)=O)C(=O)N[C@H](C(=O)N[C@@H](Cc1ccc(O)cc1)C(N)=O)[C@@H](C)O)C(C)C)[C@@H](C)O [Peptide 117, K(γE-γE-C20diacid)[CNTATC]ATQRLANFLVHSS(Aib)NFPAILSPTNVGSNTY-amide] (H-K([γGlu-γGlu-C20 diacid])CNTATCATQRLANFLVHSS[Aib]NFPAILSPTNVGSNTY-NH2; disulfide 2-7; N-terminus assumed)
